{
  "source": "patent US20150246136A1",
  "about": "“NOVEL BINDER-DRUG CONJUGATES (ADCs) AND USE OF SAME” (priority 2011, published 2015)",
  "key": {"Caco2 cells": {"tested_on": "Caco2 cells", "experiment": "Cell permeability, flux assay using Caco2 cells", "assay_type": "in vitro ADME", "settings": "2 hours", "procedure": "C-3.3 In Vitro Tests for Determining Cell Permeability\nThe cell permeability of a substance can be investigated by means of in vitro testing in a flux assay using Caco2 cells (M. D. Troutman and D. R. Thakker, Pharm. Res. 20(8):1210-1224 (2003)). To do so, the cells are cultured on 24-hole filter plates for 15-16 days. To determine the permeation, the respective test substance in a HEPES buffer was applied to the cells either apically (A) or basally (B) and incubated for 2 hours. After 0 h and 2 h, samples were taken from the cis and trans compartments. The samples were separated by HPLC (Agilent 1200, Biblingen, Germany) using reverse-phase columns. The HPLC system was linked to a triple quadrupole mass spectrometer API 4000 (Applied Biosystems Applera, Darmstadt, Germany) via a turbo ion spray interface. Permeability was evaluated on the basis of a Papp value which was calculated by means of the formula published by Schwab et al. (D. Schwab et al., J. Med. Chem. 46, 1716-1725 (2003)).\nThe permeability of B to A (Papp (B-A)) is of crucial importance for toxophores but are released intracellularly: the lower this permeability, the longer is the dwell time of the substance in the cell after intracellular release and thus also the time available for interaction with the biochemical target (here tubulin)."}, "[1]": {"tested_on": "various carcinoma cell lines", "settings": "cited from earlier work"}},
  "note": "Structures can show the parent of a compound that is named as a salt. Square brackets hold non-standard residues; d marks the D form. Peptide text beside a SMILES is read from it. * marks the point of attachment. X2 = CC(C)[C@@H](C(=O)*)N(C)CCCCCCN1C(=O)CC(SC[C@H](N)C(=O)O)C1=O; X1 = CC(C)[C@@H](C(=O)*)N(C)CCCCCC(=O)NCCCC[C@H](N)C(=O)O; Dolaproine = CO[C@@H]([C@@H]1CCCN1)[C@@H](C)C(=O)O; Dil = CC[C@H](C)[C@H](NC)[C@@H](CC(=O)O)OC; X5 = C[C@@H](N*)[C@@H](O)c1ccccc1; Oxazinan2yl(1,2) = C1CCN(*)OC1; NMeV = CN[C@H](C(=O)O)C(C)C",
  "data": [
    {"smiles": "CC[C@H](C)[C@@H]([C@@H](CC(=O)N1CCC[C@H]1[C@H](OC)[C@@H](C)C(=O)N[C@@H](Cc1c[nH]c2ccccc12)C(N)=O)OC)N(C)C(=O)[C@@H](NC(=O)[C@H](C(C)C)N(C)CCCC(=O)NNC(=O)CCCCCN1C(=O)CC(SC[C@H](N)C(=O)O)C1=O)C(C)C", "note": "(stereo partly drawn) [Example 233, N-(4-{2-[6-(3-{[(2R)-2-amino-2-carboxyethyl]sulfanyl}-2,5-dioxopyrrolidin-1-yl)hexanoyl]hydrazino}-4-oxobutyl)-N-methyl-L-valyl-N-[(3R,4S,5S)-1-{(2S)-2-[(1R,2R)-3-{[(2S)-1-amino-3-(1H-indol-3-yl)-1-oxopropan-2-yl]amino}-1-methoxy-2-methyl-3-oxopropyl]pyrrolidin-1-yl}-3-methoxy-5-methyl-1-oxoheptan-4-yl]-N-methyl-L-valinamide]", "values": [
      {"measurement": "Papp (B-A)", "setting": "Caco2 cells", "result": 0.2, "unit": "×10⁻⁶ cm/s"}
    ]},
    {"smiles": "CC[C@H](C)[C@@H]([C@@H](CC(=O)N1CCC[C@H]1[C@H](OC)[C@@H](C)C(=O)N[C@@H](Cc1c[nH]c2ccccc12)C(=O)O)OC)N(C)C(=O)[C@@H](NC(=O)[C@H](C(C)C)N(C)CCCC(=O)NNC(=O)CCCCCN1C(=O)CC(SC[C@H](N)C(=O)O)C1=O)C(C)C", "note": "(stereo partly drawn) [Example 234, N-(4-{2-[6-(3-{[(2R)-2-amino-2-carboxyethyl]sulfanyl}-2,5-dioxopyrrolidin-1-yl)hexanoyl]hydrazino}-4-oxobutyl)-N-methyl-L-valyl-N-[(3R,4S,5S)-1-{(2S)-2-[(1R,2R)-3-{[(1S)-1-carboxy-2-(1H-indol-3-yl)ethyl]amino}-1-methoxy-2-methyl-3-oxopropyl]pyrrolidin-1-yl}-3-methoxy-5-methyl-1-oxoheptan-4-yl]-N-methyl-L-valinamide]", "values": [
      {"measurement": "Papp (B-A)", "setting": "Caco2 cells", "result": 0.16, "unit": "×10⁻⁶ cm/s"}
    ]},
    {"smiles": "CC[C@H](C)[C@@H]([C@@H](CC(=O)N1CCC[C@H]1[C@H](OC)[C@@H](C)C(=O)N[C@@]1(C(=O)N2CCCCO2)C[C@@H]1c1ccccc1)OC)N(C)C(=O)[C@@H](NC(=O)[C@H](C(C)C)N(C)CCCC(=O)NNC(=O)CCCCCN1C(=O)CC(SC[C@H](N)C(=O)O)C1=O)C(C)C", "note": "(stereo partly drawn) [Example 235, N-(4-{2-[6-(3-{[(2R)-2-amino-2-carboxyethyl]sulfanyl}-2,5-dioxopyrrolidin-1-yl)hexanoyl]hydrazino}-4-oxobutyl)-N-methyl-L-valyl-N-[(3R,4S,5S)-3-methoxy-1-{(2S)-2-[(1R,2R)-1-methoxy-2-methyl-3-{[(1S,2R)-1-(1,2-oxazinan-2-ylcarbonyl)-2-phenylcyclopropyl]amino}-3-oxopropyl]pyrrolidin-1-yl}-5-methyl-1-oxoheptan-4-yl]-N-methyl-L-valinamide]", "values": [
      {"measurement": "Papp (B-A)", "setting": "Caco2 cells", "result": 0.25, "unit": "×10⁻⁶ cm/s"}
    ]},
    {"smiles": "CC[C@H](C)[C@@H]([C@@H](CC(=O)N1CCC[C@H]1[C@H](OC)[C@@H](C)C(=O)N[C@@H](Cc1c[nH]c2ccccc12)C(N)=O)OC)N(C)C(=O)[C@@H](NC(=O)[C@H](C(C)C)N(C)CCCCCCN1C(=O)CC(SC[C@H](N)C(=O)O)C1=O)C(C)C", "note": "(stereo partly drawn) [Example 236, N-[6-(3-{[(2R)-2-amino-2-carboxyethyl]sulfanyl}-2,5-dioxopyrrolidin-1-yl)hexyl]-N-methyl-L-valyl-N-[(3R,4S,5S)-1-{(2S)-2-[(1R,2R)-3-{[(2S)-1-amino-3-(1H-indol-3-yl)-1-oxopropan-2-yl]amino}-1-methoxy-2-methyl-3-oxopropyl]pyrrolidin-1-yl}-3-methoxy-5-methyl-1-oxoheptan-4-yl]-N-methyl-L-valinamide] (X2-V[Dil][Dolaproine]W-NH2)", "values": [
      {"measurement": "Papp (B-A)", "setting": "Caco2 cells", "result": 0.5, "unit": "×10⁻⁶ cm/s"}
    ]},
    {"smiles": "CC[C@H](C)[C@@H]([C@@H](CC(=O)N1CCC[C@H]1[C@H](OC)[C@@H](C)C(=O)N[C@@H](Cc1c[nH]c2ccccc12)C(=O)O)OC)N(C)C(=O)[C@@H](NC(=O)[C@H](C(C)C)N(C)CCCCCCN1C(=O)CC(SC[C@H](N)C(=O)O)C1=O)C(C)C", "note": "(stereo partly drawn) [Example 237, N-[6-(3-{[(2R)-2-amino-2-carboxyethyl]sulfanyl}-2,5-dioxopyrrolidin-1-yl)hexyl]-N-methyl-L-valyl-N-[(3R,4S,5S)-1-{(2S)-2-[(1R,2R)-3-{[(1S)-1-carboxy-2-(1H-indol-3-yl)ethyl]amino}-1-methoxy-2-methyl-3-oxopropyl]pyrrolidin-1-yl}-3-methoxy-5-methyl-1-oxoheptan-4-yl]-N-methyl-L-valinamide] (X2-V[Dil][Dolaproine]W-OH)", "values": [
      {"measurement": "Papp (B-A)", "setting": "Caco2 cells", "result": 0.1, "unit": "×10⁻⁶ cm/s"}
    ]},
    {"smiles": "CC[C@H](C)[C@@H]([C@@H](CC(=O)N1CCC[C@H]1[C@H](OC)[C@@H](C)C(=O)N[C@@H](Cc1c[nH]c2ccccc12)C(=O)NCc1ccccc1)OC)N(C)C(=O)[C@@H](NC(=O)[C@H](C(C)C)N(C)CCCC(=O)NNC(=O)CCCCCN1C(=O)CC(SC[C@H](N)C(=O)O)C1=O)C(C)C", "note": "(stereo partly drawn) [Example 239, N-(4-{2-[6-(3-{[(2R)-2-amino-2-carboxyethyl]sulfanyl}-2,5-dioxopyrrolidin-1-yl)hexanoyl]hydrazino}-4-oxobutyl)-N-methyl-L-valyl-N-[(3R,4S,5S)-1-{(2S)-2-[(1R,2R)-3-{[(2S)-1-(benzylamino)-3-(1H-indol-3-yl)-1-oxopropan-2-yl]amino}-1-methoxy-2-methyl-3-oxopropyl]pyrrolidin-1-yl}-3-methoxy-5-methyl-1-oxoheptan-4-yl]-N-methyl-L-valinamide]", "values": [
      {"measurement": "Papp (B-A)", "setting": "Caco2 cells", "result": 0.7, "unit": "×10⁻⁶ cm/s"}
    ]},
    {"smiles": "CC[C@H](C)[C@@H]([C@@H](CC(=O)N1CCC[C@H]1[C@H](OC)[C@@H](C)C(=O)N[C@@H](Cc1c[nH]c2ccccc12)C(=O)N1CCCCO1)OC)N(C)C(=O)[C@@H](NC(=O)[C@H](C(C)C)N(C)CCCCCC(=O)NCCCC[C@H](N)C(=O)O)C(C)C", "note": "[Example 277, N-(6-{[(5S)-5-amino-5-carboxypentyl]amino}-6-oxohexyl)-N-methyl-L-valyl-N-[(3R,4S,5S)-1-{(2S)-2-[(1R,2R)-3-{[(2S)-3-(1H-indol-3-yl)-1-(1,2-oxazinan-2-yl)-1-oxopropan-2-yl]amino}-1-methoxy-2-methyl-3-oxopropyl]pyrrolidin-1-yl}-3-methoxy-5-methyl-1-oxoheptan-4-yl]-N-methyl-L-valinamide trifluoroacetate] (X1-V[Dil][Dolaproine]W-{Oxazinan2yl(1,2)})", "values": [
      {"measurement": "Papp (B-A)", "setting": "Caco2 cells", "result": 0.2, "unit": "×10⁻⁶ cm/s"}
    ]},
    {"smiles": "CC[C@H](C)[C@@H]([C@@H](CC(=O)N1CCC[C@H]1[C@H](OC)[C@@H](C)C(=O)N[C@@H](Cc1c[nH]c2ccccc12)C(=O)O)OC)N(C)C(=O)[C@@H](NC(=O)[C@H](C(C)C)N(C)CCCCCC(=O)NCCCC[C@H](N)C(=O)O)C(C)C", "note": "[Example 278, N-(6-{[(5S)-5-amino-5-carboxypentyl]amino}-6-oxohexyl)-N-methyl-L-valyl-N-[(3R,4S,5S)-1-{(2S)-2-[(1R,2R)-3-{[(1S)-1-carboxy-2-(1H-indol-3-yl)ethyl]amino}-1-methoxy-2-methyl-3-oxopropyl]pyrrolidin-1-yl}-3-methoxy-5-methyl-1-oxoheptan-4-yl]-N-methyl-L-valinamide] (X1-V[Dil][Dolaproine]W-OH)", "values": [
      {"measurement": "Papp (B-A)", "setting": "Caco2 cells", "result": 0.1, "unit": "×10⁻⁶ cm/s"}
    ]},
    {"smiles": "CC[C@H](C)[C@@H]([C@@H](CC(=O)N1CCC[C@H]1[C@H](OC)[C@@H](C)C(=O)N[C@@H](Cc1ccccc1)C(=O)O)OC)N(C)C(=O)[C@@H](NC(=O)[C@@H](NC)C(C)C)C(C)C", "note": "[MMAF, Monomethylauristatin F] (H-[NMeV]V[Dil][Dolaproine]F-OH)", "values": [
      {"measurement": "antiproliferative effect", "setting": "[1]; in comparison with MMAE", "result": "only a moderate antiproliferative effect"}
    ]},
    {"smiles": "CC[C@H](C)[C@@H]([C@@H](CC(=O)N1CCC[C@H]1[C@H](OC)[C@@H](C)C(=O)N[C@@H](Cc1ccccc1)C(=O)OC)OC)N(C)C(=O)[C@@H](NC(=O)[C@@H](NC)C(C)C)C(C)C", "note": "[MMAF-OMe, Monomethylauristatin F-methylester] (H-[NMeV]V[Dil][Dolaproine]F-OMe)", "values": [
      {"measurement": "in vitro cytotoxicity", "setting": "[1]; in comparison with MMAF, various carcinoma cell lines", "result": "greater by several orders of magnitude"}
    ]},
    {"smiles": "CC[C@H](C)[C@@H]([C@@H](CC(=O)N1CCC[C@H]1[C@H](OC)[C@@H](C)C(=O)N[C@H](C)[C@@H](O)c1ccccc1)OC)N(C)C(=O)[C@@H](NC(=O)[C@@H](NC)C(C)C)C(C)C", "note": "[monomethyl auristatin E (MMAE), monomethyl auristatin E, reference compound] (H-[NMeV]V[Dil][Dolaproine]-X5)", "values": [
      {"measurement": "Papp (B-A)", "setting": "Caco2 cells", "result": 7.3, "unit": "×10⁻⁶ cm/s"}
    ]},
    {"smiles": "CC[C@H](C)[C@@H]([C@@H](CC(=O)N1CCC[C@H]1[C@H](OC)[C@@H](C)C(=O)N[C@@H](Cc1ccccc1)C(=O)O)OC)N(C)C(=O)[C@@H](NC(=O)[C@@H](NC)C(C)C)C(C)C", "note": "[monomethyl auristatin F (MMAF), monomethyl auristatin F, reference compound] (H-[NMeV]V[Dil][Dolaproine]F-OH)", "values": [
      {"measurement": "Papp (B-A)", "setting": "Caco2 cells", "result": 7.3, "unit": "×10⁻⁶ cm/s"}
    ]}
  ]
}
